Data on seven molecules can be found in BindingDB's records for patent US20240246935 (Plexium, Inc., 2024).

Some results are limits rather than exact numbers.

Sequence of Protein cereblon (Q96SW2 whole entry): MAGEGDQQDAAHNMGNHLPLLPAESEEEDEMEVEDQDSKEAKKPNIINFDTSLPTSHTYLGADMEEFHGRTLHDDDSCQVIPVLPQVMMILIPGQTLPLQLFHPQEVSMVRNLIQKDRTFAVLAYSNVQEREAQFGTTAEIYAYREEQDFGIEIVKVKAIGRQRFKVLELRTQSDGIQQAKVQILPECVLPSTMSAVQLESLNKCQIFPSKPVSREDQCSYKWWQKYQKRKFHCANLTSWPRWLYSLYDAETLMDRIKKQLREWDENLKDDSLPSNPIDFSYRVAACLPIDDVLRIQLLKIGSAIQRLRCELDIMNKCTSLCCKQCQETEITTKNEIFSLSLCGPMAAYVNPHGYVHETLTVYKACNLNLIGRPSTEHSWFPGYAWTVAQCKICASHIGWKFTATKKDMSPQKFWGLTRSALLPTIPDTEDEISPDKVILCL

This assay addresses Protein cereblon (Homo sapiens, UniProt Q96SW2). The assay is described as follows: Cereblon (CRBN) Target Engagement. On the procedure:
Cereblon target engagement was monitored by Bioluminescence Resonance Energy Transfer (BRET) in transfected HEK-293T cells using the NanoBRET TE Intracellular E3 Ligase Assay (Promega). Briefly, 384-well plates (white opaque plates, Corning 3574, low binding surface) were seeded with transfected HEK-293T cells (38 uL/well). 2 uL of 10 uM CRBN tracer (diluted 1:5 in Tracer Dilution Buffer) was added to each well. Plates were centrifuged at 320 g for 1 min at room temperature. Test compounds were added in a 11-point dilution series (typically […]) using a TECAN D300e Digital Dispenser. Plates were shaken for 2 minutes on a microplate shaker to mix compounds. Plates were centrifuged at 320 g for 1 min at room temperature, and subsequently incubated for 2 hours at 37 C.After incubation, plates were allowed to cool to room temperature for 15 minutes. 20 uL of 3 Complete NanoBRET Nano-Glo Substrate plus Inhibitor Solution (Promega, 1:166 Substrate and 1:500 dilution of Extracellular NanoLuc Inhibitor diluted in Opti-MEM) were added to each well. Plates were incubated with shaking at room temperature for 3 minutes covered with foil. Plates were read on a CLARIOstar microplate reader (BMG LabTech), measuring at 450 nm (donor emission) and 610 nm (acceptor emission). The IC50 values were determined by regression to best fit four-parameter logistic curves using GraphPad Prism.
Regarding `O=C1NC(=O)C2(N3Cc4cc(O[C@H]5CCC[C@@H]5N5CC(c6ccc(F)cc6Cl)C5)ccc4C3=O)CC1C2` [US20240246935, Example 86], the EC50 was greater than 10000 nM.
For `O=C1NC(=O)C2(N3Cc4cc(O[C@H]5CCC[C@@H]5N5CC(c6cccc(F)c6)C5)ccc4C3=O)CC1C2` [US20240246935, Example 87], the EC50 is greater than 10000 nM.
`O=C1CCC(N2Cc3cc(O[C@H]4CCC[C@@H]4N4CC(c5cccc(F)c5)C4)ccc3C2=O)C(=O)N1` (some centres not stated) [US20240246935, Example 88] had an EC50 of 30.2 nM. In other words, the double-digit nanomolar range.
To `O=C1NC(=O)C2(N3Cc4cc(O[C@H]5CCCC[C@@H]5N5CC(c6cccc(F)c6)C5)ccc4C3=O)CC1C2` [US20240246935, Example 89] belongs 6810 nM; to `O=C1CCC(N2Cc3cc(O[C@H]4CCCC[C@@H]4N4CC(c5ccc(F)cc5Cl)C4)ccc3C2=O)C(=O)N1` (some centres not stated) [US20240246935, Example 103], 15 nM.
To `O=C1CCC(N2Cc3cc(O[C@H]4CCC[C@@H]4N4CC(c5ccc(F)cc5Cl)C4)ccc3C2=O)C(=O)N1` (some centres not stated) [US20240246935, Example 104] belongs 18 nM; to `O=C1NC(=O)C2(N3Cc4cc(O[C@H]5CCC[C@@H]5N5CCC(c6ccccc6)C5)ccc4C3=O)CC1C2` (some centres not stated) [US20240246935, Example 107], greater than 10000 nM.
